Data: patent publication US20210330713A1, “HUMAN HEPATOCYTES AND USES THEREOF” (ACCELERATED BIOSCIENCES CORP., priority 2014, published 2021)
Entries after “also recorded” stand apart in the source; their conditions may differ.

Tests used:
[1] = cited from earlier work
FGF receptor (FGFR) = target: T1, FGF receptor (FGFR) (Homo sapiens, UniProt P11362); assay: FGFR inhibitor block of bFGF-induced PI3K by immunoblotting; format: cell-based; details: hTS cells, bFGF 10 ng/ml
T1 construct: endogenous in cells; host or cells: hTS cells (human trophoblast stem cells)
Experimental: (§1) For immunoblotting assay, cells were harvested into RIPA lysis solution (Millipore, Billerica, Mass.) supplemented with protease and phosphatase inhibitors (Roche). After electrophoresis of 30 μg lysates on polyacrylamide gels, electroblotting onto PDVF membranes (Millipore) was performed. After blocked by 5% non-fat milk in PBS at room temperature (1 hr), target protein was detected by using primary antibody. All membranes were incubated with chemiluminescent (Millipore) and imaging was captured by the ChemiDoc XRS system (Bio-RAD). Data were analyzed by AlphaEaseFC (version 4.0.0) system. For IP assay, Cell lysates of bFGF-treated hTS cells were collected. By incubation with protein G-agarose (Millipore) for 30 min, total protein (100 μg) was treated with specific primary antibody overnight listed in Table 1. After treating with protein G-agarose beads (2 hr), sample was washed three times with RIPA lysis buffer (Millipore), following by adding with protein loading dye and boiled for 5 min. […]
(§2) For immunoblotting assay, cells were harvested into RIPA lysis solution (Millipore, Billerica, Mass.) supplemented with protease and phosphatase inhibitors (Roche). […] After blocked by 5% non-fat milk in PBS at room temperature (1 hr), target protein was detected by using primary antibody. […] Data were analyzed by AlphaEaseFC (version 4.0.0) system. […]

CYP7A1 = details: hypercholesterolemic hamsters; cited from earlier work
hTS cells [2] = assay: Hepatocytic differentiation of hTS cells after DE stage; details: dexamethasone 0.1 μM and oncostatin M 10 ng/ml added at 8 hr of bFGF induction, 4 days
CYP3A4 = assay: Functional cytochrome p450 assay by qPCR, CYP3A4; details: hepatocyte-like cells, rifampicin 25 μM + itraconazole 25 μM, 24 hr
[3] = test system: PI3K/AKT/CREB1 signaling pathway; assay: bFGF-induced PI3K/AKT/CREB1 signaling by immunoblotting; format: cell-based, human; details: bFGF 10 ng/ml, 4 hr induction, hTS cells
Experimental: as §1, §2

hTS cells [4] = assay: bFGF induction of DE differentiation in hTS cells, DE-associated markers over time; format: cell-based, human; details: bFGF 10 ng/ml
Experimental: For immunoblotting assay, cells were harvested into RIPA lysis solution (Millipore, Billerica, Mass.) supplemented with protease and phosphatase inhibitors (Roche). After electrophoresis of 30 μg lysates on polyacrylamide gels, electroblotting onto PDVF membranes (Millipore) was performed. After blocked by 5% non-fat milk in PBS at room temperature (1 hr), target protein was detected by using primary antibody. All membranes were incubated with chemiluminescent (Millipore) and imaging was captured by the ChemiDoc XRS system (Bio-RAD). Data were analyzed by AlphaEaseFC (version 4.0.0) system. For IP assay, Cell lysates of bFGF-treated hTS cells were collected. By incubation with protein G-agarose (Millipore) for 30 min, total protein (100 μg) was treated with specific primary antibody overnight listed in Table 1. After treating with protein G-agarose beads (2 hr), sample was washed three times with RIPA lysis buffer (Millipore), following by adding with protein loading dye and boiled for 5 min. The sample was resolved by 8% SDS-PAGE and subjected to immunoblotting analysis.
(§3) Slides with cell culture was fixed for 30 min at room temperature in 95% (v/v) ethanol, washed three times in PBS and incubated with blocking buffer PBS containing 0.1% (wt/v) Triton X-100 (Sigma) and 5% (v/v) normal donkey serum (Millipore) for 60 min. Primary and secondary antibodies were diluted in blocking buffer. Primary antibody was incubated. After incubation with specific primary antibody in PBS at 4° C. (24 hr) or room temperature (2 hr), appropriate fluorescein isothiocyante (FITC, Invitrogen) or ALEXA FLUOR® 488, 594, and 647 (Invitrogen) or Dylight 488 and 594 (BioLegend) conjugated secondary antibody was added at room temperature (1 hr). After DAPI staining of nucleus (5 min), incubation with secondary antibody (1 hr) at room temperature, and washes, sample was mounted with 50% glycerol. Images were captured by confocal laser scanning microscopy (LSM700; Zeiss Z1 or Olympus FluoView 1000 confocal laser scanning microscope) or TissueFAXS system (TissueQnostics GmbH, Vienna, Austria). Data were analyzed by TissueQuest software.
This study was approved by the Institutional Review Board on Human Subjects Research and Ethics Committees (KMUHIRB-20140071). […] For DE differentiation, cells were carried out by a conditioned a-MEM media containing 10% FBS, 2-mercaptoethanol (1 mM), nicotinamide (10 mM), and bFGF (10 ng/ml) for 8 hr, according to the empirical studies (data not shown). […] Cells were harvested at 4-7 days for assay as indicated. Determination of stage-specific differentiation of lineages depends on the hepatic cell-associated markers in liver development.
as §3, with “Briefly, slides” for “Slides”, “DYLIGHT®” for “Dylight”, “glycerol.” for “glycerol. Images were captured by confocal laser scanning microscopy (LSM700; Zeiss Z1 or Olympus FluoView 1000 confocal laser scanning microscope) or TissueFAXS system (TissueQnostics GmbH, Vienna, Austria). Data were analyzed by TissueQuest software.”

miR-124a = miR-124a expression in hTS cells by qPCR; format: cell-based, human; details: bFGF induction, DE stage
Description: U6 snRNA (RNU6B; Applied Biosystems) served as an endogenous control.

T1 sequence (P11362 22-822): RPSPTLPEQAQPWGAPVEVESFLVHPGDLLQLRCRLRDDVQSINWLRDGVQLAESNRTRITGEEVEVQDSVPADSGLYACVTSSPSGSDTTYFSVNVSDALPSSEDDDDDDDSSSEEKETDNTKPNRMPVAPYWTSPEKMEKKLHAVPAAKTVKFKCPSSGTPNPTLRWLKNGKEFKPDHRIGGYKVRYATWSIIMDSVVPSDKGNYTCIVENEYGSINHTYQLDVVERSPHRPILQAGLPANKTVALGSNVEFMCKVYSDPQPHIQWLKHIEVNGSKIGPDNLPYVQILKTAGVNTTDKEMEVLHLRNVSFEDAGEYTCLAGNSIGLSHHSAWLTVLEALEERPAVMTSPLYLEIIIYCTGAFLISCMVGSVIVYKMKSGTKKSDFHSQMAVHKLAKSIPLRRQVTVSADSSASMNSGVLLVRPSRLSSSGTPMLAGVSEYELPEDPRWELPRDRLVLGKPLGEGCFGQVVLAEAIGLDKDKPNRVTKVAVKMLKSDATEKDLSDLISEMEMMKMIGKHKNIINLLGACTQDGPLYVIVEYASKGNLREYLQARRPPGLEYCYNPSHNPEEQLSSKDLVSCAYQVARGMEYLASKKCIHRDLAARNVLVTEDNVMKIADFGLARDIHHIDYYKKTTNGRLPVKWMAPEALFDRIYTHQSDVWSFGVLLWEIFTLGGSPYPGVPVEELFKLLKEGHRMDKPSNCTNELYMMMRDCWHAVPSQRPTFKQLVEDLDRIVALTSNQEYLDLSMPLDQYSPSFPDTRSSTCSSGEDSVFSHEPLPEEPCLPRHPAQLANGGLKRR

ClC(Cl)(Cl)Cl [CCl4, carbon tetrachloride]
half-live in blood [1]: 24 h

COc1cc(OC)cc(-c2cc3cnc(N)nc3nc2NC(=O)NC(C)(C)C)c1 [PD166866]
bFGF-induced activation of PI3K (FGF receptor (FGFR)): block

CC(=O)c1c(O)cc(O)cc1O [THA]
CYP7A1 activity and mRNA expression (CYP7A1): promotes both CYP7A1 activity and mRNA expression
plasma cholesterol and triglyceride (CYP7A1): reduce both plasma cholesterol and triglyceride

C[C@@H]1C[C@H]2[C@@H]3CCC4=CC(=O)C=C[C@]4(C)[C@@]3(F)[C@@H](O)C[C@]2(C)[C@@]1(O)C(=O)CO [dexamethasone]
differentiation to hepatocyte-like cells expressing hepatic markers (hTS cells [2]): resulted in the differentiation of hepatocyte-like cells

CCC(C)n1ncn(-c2ccc(N3CCN(c4ccc(OCC5COC(Cn6cncn6)(c6ccc(Cl)cc6Cl)O5)cc4)CC3)cc2)c1=O (stereo not shown) [itraconazole]
inducer-induced CYP3A4 mRNA in response to inhibitor (CYP3A4): reduced

bFGF: basic fibroblast growth factor, used at 10 ng/ml to induce DE differentiation of hTS cells
activation of the PI3K/AKT1/CREB1 signaling pathway [3]: induces activation
SOX17 levels at peak (hTS cells [4]; 2 hr, immunoblotting): 1.5 fold
intensity of Mixl1, nadir lower than the native one (hTS cells [4]; 4 hr, TissueFAX analysis): ~50%
MIXL1 levels, nadir lower than the native one (hTS cells [4]; 4 hr, immunoblotting): ~50%
DE formation (hTS cells [4]; 8 hr induction): efficiently yield DE; also recorded: rapidly differentiate hTS cells to DE stage
FOXA2 highest levels (hTS cells [4]; 8 hr, immunoblotting): 3 fold
time of peak miR-124a expression (miR-124a): 4 h
